Data set [1] in a line: Storage stability: HPLC purity. Type of data set: physicochemical.
Data set [2] can be described thus: Storage stability: polymorph integrity by PXRD. Type of data set: physicochemical. The procedure:
The crystalline forms of bictegravir disclosed herein may be characterized by X-ray powder diffraction pattern (PXRD). Samples of each polymorph were analyzed on a BRUKER D-8 Discover powder diffractometer equipped with goniometer of θ/2θ configuration and Lynx Eye detector. The Cu-anode X-ray tube was operated at 40 kV and 30 mA. The experiments were conducted over the 2θ range of 2.0°-50.0°, 0.030° step size and 0.4 seconds step time. […] The samples were analyzed by PXRD for polymorph integrity.

The mark [3] stands for this setting: at 25° C./60% RH, 6 months, listed as crystalline bictegravir Form M1.
[4] abbreviates: at 40° C./75% RH, 6 months, listed as crystalline bictegravir Form M1.
[5] abbreviates: at 25° C./60% RH, 6 months, listed as Form M2.
The mark [6] stands for this setting: at 40° C./75% RH, 6 months, listed as Form M2.
Where [7] appears, read: at 25° C./60% RH, 6 months, listed as amorphous bictegravir sodium.
[8] abbreviates: at 40° C./75% RH, 6 months, listed as amorphous bictegravir sodium.

As to `O=C(NCc1c(F)cc(F)cc1F)c1cn2c(c(O)c1=O)C(=O)N1[C@H]3CC[C@H](C3)O[C@@H]1C2` [Bictegravir Form M1, bictegravir], the HPLC purity in data set [1] (at 25° C./60% RH, 1 months) was 99.68; in data set [1] (at 25° C./60% RH, 2 months), 99.67; in data set [1] (at 25° C./60% RH, 3 months), 99.73; in data set [1] (at 25° C./60% RH, 6 months) it was 99.73; in data set [1] (setting [3]), “no change”; in data set [1] (at 25° C./60% RH, Initial), 99.66. Moreover, the HPLC purity is listed as 99.67 in data set [1] (at 40° C./75% RH, 1 months); 99.69 in data set [1] (at 40° C./75% RH, 2 months); 99.80 in data set [1] (at 40° C./75% RH, 3 months); 99.78 in data set [1] (at 40° C./75% RH, 6 months); “no change” in data set [1] (setting [4]); 99.66 in data set [1] (at 40° C./75% RH, Initial). For the same compound, the PXRD result in data set [2] (at 25° C./60% RH, 1 months) is “Stable”; in data set [2] (at 25° C./60% RH, 2 months), “Stable”; in data set [2] (at 25° C./60% RH, 3 months), “Stable”; in data set [2] (at 25° C./60% RH, 6 months), “Stable”; in data set [2] (setting [3]), “no change”; in data set [2] (at 25° C./60% RH, Initial), “Crystalline”. Besides, the PXRD entry is “Stable” in data set [2] (at 40° C./75% RH, 1 months); “Stable” in data set [2] (at 40° C./75% RH, 2 months); “Stable” in data set [2] (at 40° C./75% RH, 3 months); “Stable” in data set [2] (at 40° C./75% RH, 6 months); “no change” in data set [2] (setting [4]); “Crystalline” in data set [2] (at 40° C./75% RH, Initial).

Consider `O=C(NCc1c(F)cc(F)cc1F)c1cn2c(c(O)c1=O)C(=O)N1[C@H]3CC[C@H](C3)O[C@@H]1C2` [Bictegravir Form M2, bictegravir], for which the HPLC purity is reported as 99.68 in data set [1] (at 25° C./60% RH, 1 months); 99.67 in data set [1] (at 25° C./60% RH, 2 months); 99.73 in data set [1] (at 25° C./60% RH, 3 months); 99.73 in data set [1] (at 25° C./60% RH, 6 months); “no change” in data set [1] (setting [5]); 99.68 in data set [1] (at 25° C./60% RH, Initial). For the same compound, the HPLC purity in data set [1] (at 40° C./75% RH, 1 months) was 99.67; in data set [1] (at 40° C./75% RH, 2 months) it was 99.69; in data set [1] (at 40° C./75% RH, 3 months), 99.73; in data set [1] (at 40° C./75% RH, 6 months), 99.71; in data set [1] (setting [6]) it was “no change”; in data set [1] (at 40° C./75% RH, Initial), 99.68. Also, the PXRD entry is “Stable” in data set [2] (at 25° C./60% RH, 1 months); “Stable” in data set [2] (at 25° C./60% RH, 2 months); “Stable” in data set [2] (at 25° C./60% RH, 3 months); “Stable” in data set [2] (at 25° C./60% RH, 6 months); “no change” in data set [2] (setting [5]); “Crystalline” in data set [2] (at 25° C./60% RH, Initial). For the same compound, the PXRD result in data set [2] (at 40° C./75% RH, 1 months) was “Stable”; in data set [2] (at 40° C./75% RH, 2 months) it was “Stable”; in data set [2] (at 40° C./75% RH, 3 months), “Stable”; in data set [2] (at 40° C./75% RH, 6 months) it was “Stable”; in data set [2] (setting [6]) it was “no change”; in data set [2] (at 40° C./75% RH, Initial), “Crystalline”.

For the compound `O=C(NCc1c(F)cc(F)cc1F)c1cn2c(c([O-])c1=O)C(=O)N1[C@@H]3CC[C@@H](C3)O[C@H]1C2.[Na+]` [Bictegravir Sodium Amorphous form, (2R,5S,13aR)-2,5-Methanopyrido[1′,2′:4,5]pyrazino[2,1-b][1,3]oxazepine-10-carboxamide, 2,3,4,5,7,9, 13,13a-octahydro-8-hydroxy-7,9-dioxo-N-[(2,4,6-trifluorophenyl)methyl]-, sodium salt (1:1)], the HPLC purity is on record as 99.68 in data set [1] (at 25° C./60% RH, 1 months); 99.52 in data set [1] (at 25° C./60% RH, 2 months); 99.54 in data set [1] (at 25° C./60% RH, 3 months); 99.46 in data set [1] (at 25° C./60% RH, 6 months); “no change” in data set [1] (setting [7]); 99.48 in data set [1] (at 25° C./60% RH, Initial). Also, the HPLC purity is recorded as 99.68 in data set [1] (at 40° C./75% RH, 1 months); 99.54 in data set [1] (at 40° C./75% RH, 2 months); 99.48 in data set [1] (at 40° C./75% RH, 3 months); 99.31 in data set [1] (at 40° C./75% RH, 6 months); “no change” in data set [1] (setting [8]); 99.48 in data set [1] (at 40° C./75% RH, Initial). The PXRD entry in data set [2] (at 25° C./60% RH, 1 months) was “Stable”; in data set [2] (at 25° C./60% RH, 2 months), “Stable”; in data set [2] (at 25° C./60% RH, 3 months), “Stable”; in data set [2] (at 25° C./60% RH, 6 months), “Stable”; in data set [2] (setting [7]), “no change”; in data set [2] (at 25° C./60% RH, Initial) it was “Amorphous”. Further, the PXRD entry was “Stable” in data set [2] (at 40° C./75% RH, 1 months); “Stable” in data set [2] (at 40° C./75% RH, 2 months); “Stable” in data set [2] (at 40° C./75% RH, 3 months); “Stable” in data set [2] (at 40° C./75% RH, 6 months); “no change” in data set [2] (setting [8]); “Amorphous” in data set [2] (at 40° C./75% RH, Initial).

Values taken from patent US11466031B2, “Polymorphic forms of bictegravir and its sodium salt” (Mylan Laboratories Limited, priority 2018, dated 2022).
